For test [1], the system named is HCT-116. Description: Cytotoxicity against human HCT116 cells by MTT assay. In kind it is functional, cell-based. A general note: Formazan colour is commonly taken as a measure of viable cells.
Test [2] deals with T1, Histone deacetylase 1 (Homo sapiens, UniProt Q13547). Briefly: Inhibition of HDAC1 in human T24 cells assessed as induction of histone H4 acetylation after 16 hrs relative to MS-275. In kind it is cell-based, T-24.
The target of test [3] is T1, Histone deacetylase 1. Description: Inhibition of recombinant HDAC1.
Test [4] deals with HMEC. Briefly: Cytotoxicity against human HMEC cells by MTT assay. The test is classed as cell-based.
Test [5] has as its system T-24. Description: Induction of p21WAF1/CIP1 expression in human T24 cells. The test is classed as functional, cell-based.
The subject of test [6] is HCT-116. Description: Cell cycle arrest in human HCT116 cells by accumulation at G2/M phase. The test is classed as functional, cell-based.
For test [7], the system named is SW48. Description: Antitumor activity in human SW48 cells xenografted mouse assessed as tumor growth inhibition at 90 mg/kg, po qd after 14 days relative to control. In kind it is functional. Also noted: scale not given: the % may be the effect or the level left. (In general: Xenograft models place foreign cells or tissue in a host animal.)
The test system of test [8] is COLO 205. Description: Antitumor activity in human COLO205 cells xenografted mouse assessed as tumor growth inhibition at 90 mg/kg, po qd after 14 days relative to control. In kind it is functional. Also noted: scale not given: the % may be the effect or the level left.
Test [9] deals with SW48. Briefly: Antitumor activity in human SW48 cells xenografted mouse assessed as tumor growth inhibition at 20 mg/kg, ip qd after 14 days relative to control. In kind it is functional. More on the design: scale not given: the % may be the effect or the level left. The conditions noted are these: route intraperitoneal.
Test [10] concerns A549. Description: Antitumor activity in human A549 cells xenografted mouse assessed as tumor growth inhibition at 90 mg/kg, po qd after 14 days relative to control. The test is classed as functional. Also noted: scale not given: the % may be the effect or the level left.
The subject of test [11] is A549. Briefly: Antitumor activity in human A549 cells xenografted mouse assessed as tumor growth inhibition at 20 mg/kg, ip qd after 14 days relative to control. In kind it is functional. Also noted: scale not given: the % may be the effect or the level left. The settings on record: route intraperitoneal.
Test [12] deals with PANC-1. Briefly: Antitumor activity in human PANC1 cells xenografted mouse assessed as tumor growth inhibition at 20 mg/kg, ip qd after 14 days relative to control. In kind it is functional. More on the design: scale not given: the % may be the effect or the level left. The conditions noted are these: route intraperitoneal.

Activity calls are given as the source filed them. The calls are words filed in the database; no cut-off is given here. Some results are limits rather than exact numbers.

What is called IC50 is the concentration needed to halve the response being measured. A word on the EC50: it is the concentration needed to bring the measured effect to its halfway point.

T1 sequence (Q13547 whole entry): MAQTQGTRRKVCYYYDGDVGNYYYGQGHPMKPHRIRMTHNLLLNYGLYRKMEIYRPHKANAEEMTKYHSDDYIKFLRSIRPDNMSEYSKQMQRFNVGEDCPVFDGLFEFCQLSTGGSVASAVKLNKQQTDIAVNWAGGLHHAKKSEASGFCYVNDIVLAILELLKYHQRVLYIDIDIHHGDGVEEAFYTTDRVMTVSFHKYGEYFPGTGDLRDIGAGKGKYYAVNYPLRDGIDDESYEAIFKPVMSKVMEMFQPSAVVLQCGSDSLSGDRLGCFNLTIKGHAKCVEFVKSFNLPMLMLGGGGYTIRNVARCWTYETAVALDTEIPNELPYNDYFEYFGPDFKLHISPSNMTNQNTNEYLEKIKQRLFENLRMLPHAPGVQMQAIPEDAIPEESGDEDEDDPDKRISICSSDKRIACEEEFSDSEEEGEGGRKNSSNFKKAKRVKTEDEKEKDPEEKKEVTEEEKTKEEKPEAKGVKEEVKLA

In the case of `Nc1ccccc1NC(=O)c1ccc(CSc2nc3ccccc3[nH]2)cc1`, the IC50 in [1] is 300 nM; in test [3], 90 nM; in test [4] it was 14000 nM. In addition, in test [2], the EC50 is less than 1000 nM.
For `Nc1ccccc1NC(=O)c1ccc(CNc2cc(-c3ccccc3)[nH]n2)cc1`, the figures for the IC50 in test [1] and in test [3] were 300 nM and 70 nM, respectively.
`Nc1ccccc1NC(=O)c1ccc(CSc2nc3ccc(NCc4ccccn4)cc3s2)cc1`: the IC50 in test [1] worked out at 1000 nM; in test [3], 70 nM; in test [4], 8000 nM. Besides, the EC50 in test [2] stood at 3000 nM.
In the same order, the values of `Nc1ccccc1NC(=O)c1ccc(CSc2nc3ccc(NCCN4CCOCC4)cc3s2)cc1` are 200 nM, 70 nM, 15000 nM and 5000 nM.
Regarding `Nc1ccccc1NC(=O)c1ccc(CNc2ncc(Br)s2)cc1`, the IC50 in [1] and in [3] was 400 nM in each case.
`Nc1ccccc1NC(=O)c1ccc(CSc2nnc(-c3ccccc3)o2)cc1`: the IC50 in test [1] is 400 nM; in test [3] it was 80 nM.
Take `Nc1ccccc1NC(=O)c1ccc(CSc2ncc[nH]2)cc1`: the IC50 in test [1] was 5000 nM; in test [3], 500 nM.
`COc1ccc2nc(SCc3ccc(C(=O)Nc4ccccc4N)cc3)[nH]c2c1`: the figures for the IC50 in test [1], in [3] and in [4] were 200 nM, 70 nM and 10000 nM, respectively. Also, the EC50 was 600 nM in [5] and 1000 nM in [2]. In addition, the outcome in test [6] was Active.
In the case of `Cn1ccnc1SCc1ccc(C(=O)Nc2ccccc2N)cc1`, the figures for the IC50 in test [1] and in test [3] were 5000 nM and 1000 nM, respectively.
For `Nc1ccccc1NC(=O)c1ccc(CNc2nc3ccccc3[nH]2)cc1`, the IC50 in test [1] is 300 nM; in [3] it was 100 nM; in test [4], 27000 nM. Also, the EC50 in test [2] worked out at 1000 nM.
The corresponding values for `Nc1ccccc1NC(=O)c1ccc(CNc2nc3ccc(Br)cc3s2)cc1` are 400 nM, 50 nM, 6000 nM and 2000 nM.
In the same order, the values of `Nc1ccccc1NC(=O)c1ccc(CNc2nc3cc(Cl)ccc3o2)cc1` are 200 nM, 100 nM, 17000 nM and 1000 nM.
Regarding `COc1ccc2nc(NCc3ccc(C(=O)Nc4ccccc4N)cc3)sc2c1`, the IC50 in [1] amounted to 200 nM; in test [3], 30 nM; in test [4] it was 5000 nM. The EC50 was 800 nM in test [5] and 1000 nM in [2]. The outcome in [6] was Active.
Consider `Nc1ccccc1NC(=O)c1ccc(CSc2nc3ccc(NCc4cccnc4)cc3s2)cc1`, for which the IC50 in test [1] was 1000 nM; in test [3], 800 nM; in test [4], more than 50000 nM. Further, the EC50 in [2] was found to be 2000 nM.
As for `Nc1ccccc1NC(=O)c1ccc(CNc2ncc(-c3ccc(Cl)cc3)s2)cc1`, the IC50 in test [1] and in [3] was 300 nM in each case.
For `Nc1ccccc1NC(=O)c1ccc(CSc2nc3ccccc3s2)cc1`, the results for the IC50 in [1], in test [3] and in test [4] were 800 nM, 100 nM and 3000 nM, respectively. In addition, the EC50 in [2] was 3000 nM.
For the molecule `Nc1ccccc1NC(=O)c1ccc(CNc2nc3ccc(OCCN4CCOCC4)cc3s2)cc1`, the IC50 in [1] worked out at 200 nM; in test [3], 60 nM; in test [4], 15000 nM. In addition, the Activity in test [7] is 72%; in test [8], 62%; in test [9], 74%; in test [10], 65%; in test [11] it was 65%; in test [12] it was 70%. In addition, the EC50 in [5] and in test [2] was 1000 nM each time. Moreover, the result in test [6] was Active.
As for `CSc1nnc(NCc2ccc(C(=O)Nc3ccccc3N)cc2)[nH]1`, the values for the IC50 in [1] and in test [3] were 600 nM and 200 nM, respectively.

The values above are taken from ChEMBL document CHEMBL1141470, “4-(Heteroarylaminomethyl)-N-(2-aminophenyl)-benzamides and their analogs as a novel class of histone deacetylase inhibitors” (Bioorg Med Chem Lett, 2008).
